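96-well plates; 48 h exposure; 5 concentrations. Endpoints by linear interpolation between flanking doses. Not reached: highest tested concentration assigned. Definition used: TGI = concentration required for complete inhibition of growth.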
How the values were obtained:
Test in all cases: DTP human tumour cell line panel, 48 h
DU-145 prostate = system: DU-145 prostate
HS 578T breast = system: HS 578T breast
K-562 leukemia = system: K-562 leukemia
MDA-MB-231 breast = system: MDA-MB-231 breast
MOLT-4 leukemia = system: MOLT-4 leukemia
NCI-H23 lung = system: NCI-H23 lung
NCI-H460 lung = system: NCI-H460 lung
OVCAR-3 ovarian = system: OVCAR-3 ovarian
RXF 393 renal = system: RXF 393 renal
SF-295 CNS = system: SF-295 CNS
SK-OV-3 ovarian = system: SK-OV-3 ovarian
UACC-257 melanoma = system: UACC-257 melanoma

SMILES | TGI (DU-145 prostate) [µM] | TGI (HS 578T breast) [µM] | TGI (K-562 leukemia) [µM] | TGI (MDA-MB-231 breast) [µM] | TGI (MOLT-4 leukemia) [µM] | TGI (NCI-H23 lung) [µM] | TGI (NCI-H460 lung) [µM] | TGI (OVCAR-3 ovarian) [µM] | TGI (RXF 393 renal) [µM] | TGI (SF-295 CNS) [µM] | TGI (SK-OV-3 ovarian) [µM] | TGI (UACC-257 melanoma) [µM]
CN(C)Cc1cc(N=Nc2ccccc2)cc(CN(C)C)c1O | > 100 | > 100 | > 100 | > 100 | > 100 | > 100 | > 100 | > 100 | > 100 | > 100 | > 100 | > 100
Cc1ccc(N=C2C(=O)C3=C(OC(C)(C)CC3)c3ccccc32)cc1 | 2.59 | > 23.2 | 0.86 | 4.1 | 3.08 | 6.88 | 3.96 | 0.589 | 3.12 | 2.7 | 3.1 | 1.72
Cn1c(-c2cccs2)cc(-c2cccs2)c1-c1ccsc1 | > 100 | > 100 | > 100 | > 100 | > 100 | > 100 | > 100 | 75.2 | > 100 | > 100 | > 100 | > 100
Cc1cc2c(c(C=NCc3ccccc3)c1)OC1(C=C2)Oc2ccccc2C(=O)N1C (stereo not drawn) | 70.4 | 63.6 | > 100 | 78.1 | 36.5 | 69.6 | 55.4 | > 100 | 55.9 | > 100 | > 100 | 67
O=[N+]([O-])c1ccc2nc(/C=C(\O)c3ccc(F)cc3)c(/C=C(\O)c3ccc(F)cc3)nc2c1 | > 100 | > 100 | > 100 | 69.6 | 43.5 | 77.7 | > 100 | > 100 | 40.7 | 57.6 | 47.5 | > 100
O=C(CSCC(=O)N/N=C\c1ccc(-c2ccccc2)cc1)N/N=C\c1ccc(-c2ccccc2)cc1 | > 100 | 49.8 | > 100 | 25.2 | > 100 | 35.4 | > 100 | 30 | > 100 | 40.9 | 38.9 | > 100
S=c1[nH]c(=S)c2cc(Sc3ccc4[nH]c(=S)[nH]c(=S)c4c3)ccc2[nH]1 | > 100 | 56.1 | > 100 | > 100 | > 100 | 51.4 | > 100 | > 100 | 53.3 | 47.1 | 60 | > 100
COC(=O)/C=c1/c2ccccc2n2nc3ccccc3c12 | > 100 | > 100 | > 100 | 91.3 | 35.3 | > 100 | > 100 | > 100 | > 100 | > 100 | 61.3 | > 100
O=c1oc2ccccc2n1CCN1CCCCC1 | > 100 | > 100 | > 100 | > 100 | > 100 | > 100 | > 100 | > 100 | > 100 | > 100 | > 100 | > 100
CNC(=S)N/N=C/c1cccc(C)n1 | > 83.2 | > 100 | > 100 | > 89 | > 87 | > 81.2 | 60.9 | > 100 | 97.4 | > 100 | > 100 | > 100
COCc1cc2c(cc1/C=C/[N+](=O)[O-])OCO2 | 34.4 | 44.3 | > 100 | 34.7 | > 100 | 44 | 34.3 | 33.7 | 32.3 | 36.3 | 31.9 | 30.8
Cc1c(NC(=S)Nc2ccc(Cl)cc2)c(=O)n(-c2ccccc2)n1C | > 100 | > 100 | > 100 | > 100 | > 100 | > 100 | > 100 | > 100 | > 100 | > 100 | > 100 | > 100
COc1ccccc1N1CCN(Cn2c(=O)oc3cccnc32)CC1 | > 100 | > 100 | > 100 | > 100 | > 100 | > 100 | > 100 | > 100 | > 100 | > 100 | > 100 | > 100
COc1ccc(-c2cc(-c3cc(OC)c(OC)c(OC)c3)cc(-c3cc4ccccc4oc3=O)n2)cc1 | 56.1 | 7.14 | > 100 | 8.07 | > 100 | 29.8 | 17.8 | 68.3 | 16.1 | 19.4 | 14.5 | 63.3
CC1(C)N=C(N)N=C(N)N1c1cccc(OCCOc2ccc([N+](=O)[O-])cc2)c1 | > 100 | > 100 | > 100 | > 100 | > 100 | > 100 | > 100 | > 100 | > 100 | > 100 | > 100 | > 100
COc1ccc2c3c1OC1c4[nH]c5ccccc5c4CC4(O)C(C2)N(C)CCC314 (stereo not drawn) | > 100 | 67.7 | 37.2 | 77.4 | 54.1 | > 100 | 50.3 | > 100 | 50.8 | > 100 | > 100 | 34.1
COc1ccc(N=C(Nc2ccc(OC)cc2)C(=Nc2ccc(OC)cc2)Nc2ccc(OC)cc2)cc1 | > 100 | > 100 | > 100 | > 100 | > 100 | > 100 | > 100 | > 100 | > 100 | > 100 | > 100 | > 100
CC12Cc3cc4c(cc3C1(c1ccc([N+](=O)[O-])cc1)OCCO2)OCO4 (stereo not drawn) | > 100 | 86.4 | > 100 | 42.3 | > 100 | > 100 | > 100 | > 100 | 51.6 | 57.7 | 47.6 | > 100
CNC(=O)c1[nH]cnc1/N=N/N(C)N | > 100 | > 100 | > 100 | > 100 | > 100 | > 100 | > 100 | > 100 | > 100 | > 100 | > 100 | > 100

Source: PubChem BioAssay (NCI)
